We go through 21 compounds from ChEMBL document CHEMBL5150044, “Macrocyclization of Quinazoline-Based EGFR Inhibitors Leads to Exclusive Mutant Selectivity for EGFR L858R and Del19” (J Med Chem, 2022).

For test [1], the target named is Epidermal growth factor receptor (Homo sapiens, UniProt P00533, EX19DEL).
Test [2] has as its target Epidermal growth factor receptor (Homo sapiens, UniProt P00533).
Test [3] addresses Epidermal growth factor receptor (Homo sapiens, UniProt P00533, L858R).
The target in test [4] is RAC-alpha serine/threonine-protein kinase (Mus musculus) (UniProt P31750). Format: cell-based. The conditions noted are these: BaF3, dose 10-1000 nM, time 8.0 hrs.
For test [5] the target is unchanged. Description: Inhibition of AKT phosphorylation in mouse BaF3 cells harboring L858R mutant assessed as […] phosphorylation at 10 to 1000 nM incubated for 8 hrs by Western blot analysis. Format: cell-based. The conditions noted are these: dose 10-1000 nM. Background: A western blot detects proteins with antibodies after separation by electrophoresis.
Test [6] deals with T1, Mitogen-activated protein kinase 1 and 3 (ERK2 and ERK1) (Mus musculus) (UniProt P63085+Q63844). The experiment in a line: Inhibition of ERK1/2 phosphorylation in mouse BaF3 cells harboring Del19 mutant assessed as ERK1/2 phosphorylation at 10 to 1000 nM incubated for 8 hrs by Western blot analysis. Format: cell-based. The conditions noted are these: dose 10-1000 nM.
The target of test [7] is T1, Mitogen-activated protein kinase 1 and 3 (ERK2 and ERK1) (Mus musculus). Format: cell-based. The conditions noted are these: BaF3, dose 10-1000 nM, time 8.0 hrs.
The target is the same in test [8]. The experiment in a line: Inhibition of ERK1/2 phosphorylation in mouse BaF3 cells harboring L858R mutant assessed as ERK1/2 phosphorylation at 10 to 1000 nM incubated for 8 hrs by Western blot analysis. Format: cell-based. The conditions noted are these: dose 10-1000 nM.
Test [9] addresses RAC-alpha serine/threonine-protein kinase (Mus musculus) (UniProt P31750). The experiment in a line: Inhibition of AKT phosphorylation in mouse BaF3 cells harboring Del19 mutant assessed as […] phosphorylation at 10 to 1000 nM incubated for 8 hrs by Western blot analysis. Format: cell-based. The conditions noted are these: dose 10-1000 nM.
For test [10], the system named is Epidermal growth factor receptor (Homo sapiens), P04626+P00533+Q15303+P21860 [L858R]. The conditions noted are these: Mus musculus; BaF3; dose 10-1000 nM, time 8.0 hrs.
Test [11] concerns the target RAC-alpha serine/threonine-protein kinase (Mus musculus) (UniProt P31750). Format: cell-based. The conditions noted are these: BaF3, dose 10-1000 nM, time 8.0 hrs. This is another data set of the same source.
In test [12] the target is T1, Mitogen-activated protein kinase 1 and 3 (ERK2 and ERK1) (Mus musculus). Format: cell-based. The conditions noted are these: BaF3, dose 10-1000 nM, time 8.0 hrs. The source holds these as a separate data set.
Test [13] relates to BaF3. Description: cells. Format: functional, cell-based. The conditions noted are these: Mus musculus, BaF3, 72 h.
For test [14], the system named is BaF3. Description: cells. The conditions noted are these: Mus musculus, BaF3, 72 h.
Test [15] concerns BaF3. Description: cells. Format: functional, cell-based. The conditions noted are these: Mus musculus, BaF3, 72 h. The source holds these as a separate data set.
Description: Antiproliferative activity against mouse BaF3 cells expressing Del19 assessed as cell viability measured after 72 hrs hrs by CellTiter Glo assay
Test [16] has as its target Epidermal growth factor receptor (Homo sapiens, UniProt P00533, L858R/T790M).
Test [17] deals with BaF3. Description: cells. The conditions noted are these: Mus musculus, BaF3, 72 h. This is another data set of the same source.
Test [18] has as its system BaF3. Description: cells. The conditions noted are these: Mus musculus, BaF3, 72 h. This is another data set of the same source.
Test [19] has as its system BaF3. Description: cells. The conditions noted are these: Mus musculus, BaF3, 72 h. The source holds these as a separate data set.
Test [20] has as its system BaF3. The experiment in a line: cells. Format: functional, cell-based. The conditions noted are these: Mus musculus, BaF3, 72 h. This is another data set of the same source.
Test [21] relates to BaF3. Description: cells. Format: functional, cell-based. The conditions noted are these: Mus musculus, BaF3, 72 h. The source holds these as a separate data set.
For test [22], the system named is BaF3. Description: cells. The conditions noted are these: Mus musculus, BaF3, 72 h. This is another data set of the same source.
Test [23] concerns BaF3. Description: cells. The conditions noted are these: Mus musculus, BaF3, 72 h. This is another data set of the same source.
For test [24], the system named is BaF3. The experiment in a line: cells. The conditions noted are these: Mus musculus, BaF3, 72 h. The source holds these as a separate data set.
The subject of test [25] is BaF3. The experiment in a line: cells. The conditions noted are these: Mus musculus, BaF3, 72 h. This is another data set of the same source.
Description: Antiproliferative activity against mouse BaF3 cells expressing EGFR WT assessed as cell viability measured after 72 hrs hrs by CellTiter Glo assay

Activity calls are given as the source filed them. The rule behind the calls is not given here.

T1 sequence (P63085 whole entry, looked up): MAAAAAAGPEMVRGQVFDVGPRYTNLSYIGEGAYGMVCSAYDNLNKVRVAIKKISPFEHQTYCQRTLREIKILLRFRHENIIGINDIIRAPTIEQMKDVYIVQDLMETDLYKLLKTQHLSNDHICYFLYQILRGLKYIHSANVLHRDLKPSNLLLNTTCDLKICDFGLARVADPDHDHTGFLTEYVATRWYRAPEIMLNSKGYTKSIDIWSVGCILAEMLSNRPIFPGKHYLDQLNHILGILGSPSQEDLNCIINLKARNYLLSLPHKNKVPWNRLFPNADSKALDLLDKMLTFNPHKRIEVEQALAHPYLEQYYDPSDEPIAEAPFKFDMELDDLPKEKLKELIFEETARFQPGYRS
T1 sequence (Q63844 whole entry, looked up): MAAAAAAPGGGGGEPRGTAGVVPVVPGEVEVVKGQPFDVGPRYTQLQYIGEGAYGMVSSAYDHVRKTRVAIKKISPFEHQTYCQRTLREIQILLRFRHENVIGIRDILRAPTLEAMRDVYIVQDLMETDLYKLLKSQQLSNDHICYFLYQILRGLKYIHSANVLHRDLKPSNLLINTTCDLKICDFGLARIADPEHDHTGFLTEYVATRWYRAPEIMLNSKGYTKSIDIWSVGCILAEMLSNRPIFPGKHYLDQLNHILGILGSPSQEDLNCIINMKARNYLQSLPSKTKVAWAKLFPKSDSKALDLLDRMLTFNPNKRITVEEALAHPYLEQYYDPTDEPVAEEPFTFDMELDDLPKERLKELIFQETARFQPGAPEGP
Chain of Epidermal growth factor receptor (Homo sapiens, UniProt P00533, L858R) (P00533 25-1210 L858R limits assumed): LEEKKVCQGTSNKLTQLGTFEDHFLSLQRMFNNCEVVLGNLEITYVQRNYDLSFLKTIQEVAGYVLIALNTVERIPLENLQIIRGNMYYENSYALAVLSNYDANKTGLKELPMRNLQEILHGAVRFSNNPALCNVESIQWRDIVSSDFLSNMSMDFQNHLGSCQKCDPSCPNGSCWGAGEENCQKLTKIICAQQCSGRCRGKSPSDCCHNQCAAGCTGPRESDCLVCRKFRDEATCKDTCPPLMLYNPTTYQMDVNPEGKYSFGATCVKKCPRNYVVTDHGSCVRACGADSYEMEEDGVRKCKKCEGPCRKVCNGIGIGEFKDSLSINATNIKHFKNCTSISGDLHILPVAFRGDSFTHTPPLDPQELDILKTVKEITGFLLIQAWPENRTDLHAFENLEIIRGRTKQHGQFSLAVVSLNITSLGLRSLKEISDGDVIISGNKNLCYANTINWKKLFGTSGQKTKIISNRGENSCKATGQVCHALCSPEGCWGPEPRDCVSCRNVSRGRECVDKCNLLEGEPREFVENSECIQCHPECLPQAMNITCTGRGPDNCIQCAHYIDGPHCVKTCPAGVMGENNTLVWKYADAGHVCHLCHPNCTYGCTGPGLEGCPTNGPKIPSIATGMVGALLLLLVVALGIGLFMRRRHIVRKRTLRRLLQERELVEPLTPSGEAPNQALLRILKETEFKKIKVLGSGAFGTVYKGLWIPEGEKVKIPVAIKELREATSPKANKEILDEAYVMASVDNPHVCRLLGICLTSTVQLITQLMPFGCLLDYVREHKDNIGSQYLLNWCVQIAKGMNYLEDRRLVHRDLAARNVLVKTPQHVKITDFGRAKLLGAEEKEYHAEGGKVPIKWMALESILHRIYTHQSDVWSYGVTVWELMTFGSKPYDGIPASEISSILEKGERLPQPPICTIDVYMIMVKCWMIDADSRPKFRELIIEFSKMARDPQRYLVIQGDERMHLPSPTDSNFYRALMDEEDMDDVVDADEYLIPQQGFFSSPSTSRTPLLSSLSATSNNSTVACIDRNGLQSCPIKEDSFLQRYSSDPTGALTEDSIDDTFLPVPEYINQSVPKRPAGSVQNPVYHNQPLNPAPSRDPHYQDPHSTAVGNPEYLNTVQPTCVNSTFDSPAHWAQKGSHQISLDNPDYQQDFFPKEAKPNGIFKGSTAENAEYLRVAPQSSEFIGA
Chain of RAC-alpha serine/threonine-protein kinase (Mus musculus) (P31750 whole entry): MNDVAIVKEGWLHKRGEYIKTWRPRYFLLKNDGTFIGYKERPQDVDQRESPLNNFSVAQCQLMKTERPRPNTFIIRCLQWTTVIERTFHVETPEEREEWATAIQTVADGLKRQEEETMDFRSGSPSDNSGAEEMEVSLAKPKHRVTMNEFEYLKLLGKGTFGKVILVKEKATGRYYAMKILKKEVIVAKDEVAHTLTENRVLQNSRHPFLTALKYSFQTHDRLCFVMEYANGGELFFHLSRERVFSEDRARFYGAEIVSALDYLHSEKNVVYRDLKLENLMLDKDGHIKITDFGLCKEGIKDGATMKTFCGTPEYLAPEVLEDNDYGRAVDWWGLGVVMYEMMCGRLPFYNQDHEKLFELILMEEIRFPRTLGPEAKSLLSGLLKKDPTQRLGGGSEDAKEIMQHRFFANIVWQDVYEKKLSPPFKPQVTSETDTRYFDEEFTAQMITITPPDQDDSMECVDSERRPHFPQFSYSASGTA
Chain of Epidermal growth factor receptor (Homo sapiens, UniProt P00533, EX19DEL) (P00533 whole entry, looked up, stated change not applied): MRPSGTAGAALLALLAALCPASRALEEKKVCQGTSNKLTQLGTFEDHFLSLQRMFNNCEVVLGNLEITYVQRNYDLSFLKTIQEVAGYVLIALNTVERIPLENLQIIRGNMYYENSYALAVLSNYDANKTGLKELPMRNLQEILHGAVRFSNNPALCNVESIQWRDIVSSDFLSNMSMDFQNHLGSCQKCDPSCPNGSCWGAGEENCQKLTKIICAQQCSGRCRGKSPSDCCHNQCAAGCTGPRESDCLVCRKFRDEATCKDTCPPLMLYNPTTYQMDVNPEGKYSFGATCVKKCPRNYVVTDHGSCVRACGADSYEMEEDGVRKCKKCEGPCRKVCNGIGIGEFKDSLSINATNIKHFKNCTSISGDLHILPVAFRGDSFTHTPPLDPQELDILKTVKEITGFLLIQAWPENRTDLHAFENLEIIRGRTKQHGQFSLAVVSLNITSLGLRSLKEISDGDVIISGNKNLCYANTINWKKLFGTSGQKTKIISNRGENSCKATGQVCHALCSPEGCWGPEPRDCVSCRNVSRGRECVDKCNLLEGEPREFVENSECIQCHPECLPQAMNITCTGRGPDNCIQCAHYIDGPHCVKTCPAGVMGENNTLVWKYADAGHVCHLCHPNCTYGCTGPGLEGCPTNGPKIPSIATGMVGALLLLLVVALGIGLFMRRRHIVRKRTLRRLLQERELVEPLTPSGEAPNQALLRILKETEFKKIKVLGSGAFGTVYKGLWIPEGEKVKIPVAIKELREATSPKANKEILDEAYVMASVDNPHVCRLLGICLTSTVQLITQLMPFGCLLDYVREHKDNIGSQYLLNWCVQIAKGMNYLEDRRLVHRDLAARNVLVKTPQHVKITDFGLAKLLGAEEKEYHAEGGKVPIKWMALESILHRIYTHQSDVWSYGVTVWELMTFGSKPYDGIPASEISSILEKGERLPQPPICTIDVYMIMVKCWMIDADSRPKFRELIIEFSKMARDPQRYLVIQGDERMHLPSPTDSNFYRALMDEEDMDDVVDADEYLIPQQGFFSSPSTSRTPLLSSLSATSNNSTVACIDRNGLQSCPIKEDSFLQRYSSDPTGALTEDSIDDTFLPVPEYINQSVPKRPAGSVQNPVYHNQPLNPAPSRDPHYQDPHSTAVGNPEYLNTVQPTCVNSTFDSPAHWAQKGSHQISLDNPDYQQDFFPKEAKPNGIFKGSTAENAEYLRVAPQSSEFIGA
Chain of Epidermal growth factor receptor (Homo sapiens, UniProt P00533) (P00533 whole entry): as the sequence (P00533 whole entry, looked up, stated change not applied) above

Broadly, the IC50 is the concentration at which inhibition is half-maximal. Low values mean higher potency, high ones lower potency. Consider `COc1cc2ncnc3c2cc1OCCCCCCOc1cc(F)c(Cl)cc1N3`, for which the values for the IC50 in test [1], in [2] and in test [3] were 235 nM, above 100000 nM and 655 nM, respectively.

For `COc1cc2ncnc3c2cc1OCCOCCOCCOc1cccc(Cl)c1N3`, the figures for the IC50 in test [1], in [2] and in [3] were 42.9 nM, above 100000 nM and 32.6 nM, respectively.

Regarding `COc1cc2ncnc3c2cc1OCCOCCOc1cc(ccc1Cl)N3`, the results for the IC50 in test [1] and in [3] were 493 nM and 1120 nM, respectively.

`COc1cc2ncnc3c2cc1OCCOCCOCCOc1cc(F)c(Cl)cc1N3`: the inhibition entry in [4], in [5], in test [6], in test [7], in test [8] and in [9] was “Active” in each case. Further, the inhibition entry in test [10], in [11] and in [12] was “Active” in each case. Moreover, the IC50 in test [1] was 1.3 nM; in test [2], above 100000 nM; in [3], 2.8 nM.

As for `Fc1cc2c(cc1Cl)Nc1ncnc3ccc(cc13)OCCOCCO2`, the IC50 in test [1] was 1030 nM; in [13], 2760 nM; in test [14], 5360 nM; in [15], 3100 nM.

In test [1], `COc1cc2ncnc3c2cc1OCCOCCOc1cccc(c1)N3` came in with an IC50 of 33900 nM.

For `COc1cc2ncnc3c2cc1OCCOCCOc1cc(Cl)cc(c1)N3`, in test [1], the IC50 was determined as 6300 nM.

Turning to `COc1cc2ncnc3c2cc1OCCOCCOc1cc(Cl)ccc1N3`, in test [2], the IC50 was above 100000 nM.

For the compound `COc1cc2ncnc3c2cc1OCCCCCCOc1ccc(Cl)cc1N3`, the IC50 is 19.6 nM in test [1], above 100000 nM in [2] and 739 nM in test [3].

`COc1cc2ncnc3c2cc1OCCOCCOc1c(Cl)cccc1N3`: the IC50 in test [1] came to 509 nM.

Take `COc1cc2ncnc3c2cc1OCCCCCCOc1cc(Cl)ccc1N3`: the IC50 in test [1] was 63500 nM; in test [2], above 100000 nM; in [3] it was above 100000 nM.

`COc1cc2ncnc3c2cc1OCCOCCOc1ccccc1N3`: the IC50 in test [1] was 155 nM; in test [2] it was above 100000 nM; in test [16], 1680 nM; in test [3], 685 nM.

As for `C=CC(=O)Nc1cc(Nc2ncc(C(=O)OC(C)C)c(-c3cn(C)c4ccccc34)n2)c(OC)cc1N(C)CCN(C)C` [MOBOCERTINIB], the IC50 was 8.9 nM in test [17]; 27.1 nM in test [18]; 1060 nM in test [13]; 47.6 nM in [19]; 9 nM in [20]; 10.1 nM in [21]. For the same compound, the IC50 in test [14] came out at 1.9 nM; in [22] it was 1130 nM; in [23], 3810 nM; in test [24], 2170 nM; in test [25], 8.3 nM; in test [15] it was 5 nM.

Consider `COc1cc2ncnc3c2cc1OCCCCCCOc1cccc(Cl)c1N3`, for which the IC50 in test [1] was 56.8 nM; in test [2], above 100000 nM; in test [3], 275 nM.

As to `COc1cc2ncnc3c2cc1OCCOCCOc1ccc(Cl)cc1N3`, the IC50 is 24.9 nM in [1], above 100000 nM in test [2] and 128 nM in [3].

Turning to `COc1cc2ncnc3c2cc1OCCOCCOCCOc1cc(Cl)ccc1N3`, the results for the IC50 in test [1], in test [2] and in test [3] were 16.2 nM, above 100000 nM and 38.3 nM, respectively.

For the compound `COc1cc2ncnc3c2cc1OCCOCCOCCOc1ccccc1N3`, the IC50 in test [1] is 1870 nM; in test [2], above 100000 nM; in test [3], 87.6 nM.

For the compound `COc1cc2ncnc3c2cc1OCCCCCCOc1ccccc1N3`, the IC50 in [1] is 491 nM.

Take `COc1cc2ncnc3c2cc1OCCOCCOCCOc1ccc(Cl)cc1N3`: the inhibition result in test [4], in test [5], in test [6], in [7], in test [8] and in [9] was “Active” in each case. Besides, the inhibition entry in [10], in test [11] and in [12] was “Active” each time. Also, the values for the IC50 in test [1], in test [2] and in test [3] were 0.3 nM, above 100000 nM and 0.7 nM, respectively.

As to `COc1cc2ncnc3c2cc1OCCOCCOc1ccc(Cl)c(c1)N3`, the IC50 in test [1] is 70400 nM; in test [2] it was above 100000 nM; in test [3], 19900 nM.

Take `COc1cc2ncnc3c2cc1OCCCCCCOc1c(Cl)cccc1N3`: the IC50 in test [1] is 3030 nM; in test [3], above 100000 nM.
